Results reported in patent publication US9416103B2, “Use of the aminoalkylindole JWH-073-M4 and related compounds as neutral CB1 receptor antagonists for the treatment of alcoholism, drug abuse, obesity, and obesity-related diseases” (The Board of Trustees of the University of Arkansas, priority 2012, dated 2016).
Read-outs that look alike come from different tables or passages of the source. Marks after values point to notes of the source that are not given here.

What was measured:
[1] = target: T1, CB1Rs (Mus musculus (Mouse), UniProt P47746); test: [35S]GTPγS binding assay (G-protein activation) in mouse brain homogenates; type: biochemical
Experimental: (§1) Mouse brain homogenates for in vitro assays were prepared as previously described. Briefly, whole brains were harvested from B6SJL mice, snap-frozen in liquid nitrogen and stored at −80° C. On the day membrane homogenates were to be prepared, brains were thawed on ice, then pooled in a 40 mL Dounce glass homogenizer and suspended in 5 volumes of ice cold homogenization buffer (50 mM HEPES, pH 7.4, 3 mM MgCl2, and 1 mM EGTA). Brains were then subjected to 10 complete strokes with an A pestle, followed by centrifugation at 40,000×g for 10 minutes at +4° C. Resulting supernatants were discarded, and the pellet was resuspended, homogenized and centrifuged similarly twice more, with supernatants being discarded. For the final resuspension and homogenization with a B pestle, ice-cold 50 mM HEPES was used in place of homogenization buffer, and homogenates were aliquoted and stored at −80° C. Protein concentrations of homogenates were determined using the BCA™ Protein Assay (Thermo Scientific, Rockford, Ill.).
[^35S]GTPγS binding was performed as previously described. Briefly, 25 μg of mouse brain homogenates were incubated for 30 minutes at 30° C. with 0.1 nM [^35S]GTPγS, 10 μM GDP, and either cannabinoid+/−antagonist, 10 μM unlabeled GTPγS (non-specific binding) or vehicle (total binding), in triplicate, in a volume of 1 mL of buffer containing 20 mM HEPES, 10 mM MgCl2, 100 mM NaCl, 20 units/L adenosine deaminase, 0.05% BSA and the appropriate DMSO (0.1%) and/or ethanol (<0.2%) vehicle. Assay buffer containing 100 mM KCl, instead of 100 mM NaCl, was used to increase basal G-protein activity in experiments examining inverse agonism. Reactions were terminated by quick vacuum filtration through Whatman GF/B glass fiber filters, followed by five washes with ice-cold buffer (20 mM HEPES, 0.05% BSA). Filters were immediately placed into 7 mL scintillation vials to which 4 mL of ScintiVerse™ BD Cocktail scintillation fluid was added. Bound radioactivity was determined after overnight incubation at room temperature and shaking by liquid scintillation spectrophotometry with an efficiency of 93% (Tri Carb 2100 TR Liquid Scintillation Analyzer, Packard Instrument Company, Meriden, Conn.). Specific binding is expressed as picomoles of [^35S]GTPγS bound per mg of protein.
(§2) Curve fitting and statistical analyses for in vitro experiments were performed using GraphPad Prism™ version 5.0b (GraphPad Software Inc., San Diego, Calif.). The Cheng-Prusoff equation [45] was used to convert the experimental IC50 values obtained from competition receptor binding experiments to Ki values, a quantitative measure of receptor affinity. Non-linear regression for one-site competition was used to determine the IC50 for competition receptor binding. Curve fitting of concentration-effect curves via non-linear regression was also employed to determine the EC50 (a measure of potency) and Emax (a measure of efficacy) for [^35S]GTPγS concentration-effects experiments. […] Data are expressed as mean±SEM. The Student's t-test was used to determine statistical significance (P<0.05) between two groups, while a one-way ANOVA, followed by Tukey's Multiple Comparison post-hoc test, was used to determine statistical significance (P<0.05) between three or more groups.

[2] = target: CB1Rs endogenously expressed in Neuro2A cells (Mus musculus (Mouse), UniProt P47746); test: Adenylyl cyclase (AC) inhibition via CB1Rs endogenously expressed in Neuro2A cells; type: cell-based; conditions: for antagonism of AC-inhibition produced by the CB1R full agonist JWH-073: 1 μM concentration; for inhibition at 10 µM: N2a
[3] = target: T1, CB1Rs; conditions: mouse brain homogenates; values previously reported [39]; read-out: [3H]CP binding Ki; cited from earlier work
[4] = target: T1, CB1Rs; test: Competition receptor binding with [3H]CP-55,940 in mouse brain homogenates; conditions: Table 3; read-out: mCB1R Ki
Experimental: as §1
(§3) Competition receptor binding was performed as previously described. […] Reactions were terminated by rapid vacuum filtration through Whatman GF/B glass fiber filters, followed by five washes with ice-cold buffer (50 mM Tris, 0.05% BSA). Filters were immediately placed into 7 mL scintillation vials to which 4 mL of ScintiVerse™ BD Cocktail scintillation fluid (Fisher Scientific, Fair Lawn, N.J.) was added. Bound radioactivity was determined after overnight incubation at room temperature and shaking, by liquid scintillation spectrophotometry with an efficiency of 44% (Tri Carb 2100 TR Liquid Scintillation Analyzer, Packard Instrument Company, Meriden, Conn.). Specific binding is expressed as total binding minus non-specific binding, and is graphed for each data point as a percentage of specific binding occurring in the absence of any competitor.
as §2
(§4) The prepared analogues were subjected to in vitro pharmacological testing, which included receptor binding and functional assays at both cannabinoid receptors. Initial receptor binding screens at both CB1Rs and CB2Rs were conducted for the analogues prepared.

[5] = target: T2, hCB2Rs (Homo sapiens (Human), UniProt P34972); test: Competition receptor binding with [3H]CP-55,940 in CHO-hCB2 cell homogenates; conditions: Table 3; read-out: hCB2R Ki
Experimental: as §3, §4

[6] = target: T2, hCB2Rs; test: Inhibition of forskolin-stimulated cAMP production (adenylyl cyclase) in intact CHO-hCB2R cells; type: cell-based; conditions: for inhibition at 10 µM: CHO cell transfected with hCB2 receptors, read-out: AC-inhibition at CB2Rs; for inhibition of AC-activity at CB2Rs, concentration-effect: CHO-hCB2 cells
Experimental: Adenylyl cyclases are a family of membrane-bound enzymes that catalyze the intracellular production of the second messenger cAMP from ATP. Adenylyl cyclase activity is modulated by activated G-proteins: Gs-proteins stimulate activity, while Gi/o-proteins are inhibitory. Thus, agonists of G-protein coupled receptors (GPCRs) coupled to Gi/o-proteins, such as hCB2Rs, decrease cAMP production due to inhibition of adenylyl cyclase activity. In this assay, intact CHO-hCB2R cells are preincubated with [^3H]-adenine and treated with forskolin (10 or 30 μM) to stimulate adenylyl cyclase activity.
A functional assay screen for the inhibition of adenylate cyclase (AC) activity was chosen as the subsequent assay. […] Reaching full-receptor occupancy, which is predicted to produce maximal efficacy, is desirable at 10 μM concentration of all the compounds was used.

[7] = tested on: CHO-WT cells; test: AC-inhibition assay in CHO-WT cells not transfected with CB2Rs; type: cell-based, Chinese hamster
Experimental: To examine if the observed agonist activity is due to activation of CB2Rs, an additional AC-inhibition assay was performed.

[8] = tested on: mice; test: Thermoregulation assay, antagonism of JWH-073-induced hypothermia; type: in vivo, mouse; conditions: 30 minute pretreatment before JWH-073 10 mg/kg
Source text: Our hypothesis is that a dual activity CB1R antagonist/CB2R agonist will reduce the reinforcing effects of EtOH as well as reduce the conditioned rewarding effects of ethanol in mice. The compounds selected will firstly be put through a thermoregulation assay as a screen for potential cannabinoid receptor activity. Thermoregulation will be used as a screen because of the well-established hypothermic effects seen with the use of cannabinoid ligands. This assay was done using glass radiotelemetry probes that were surgically implanted in each mouse, which monitor core temperature in response to drug administration. […] This screen does indeed confirm the in vivo cannabinoid activity of TV-5-249 and TV-6-41 and it also illustrates the evident antagonist effects against agonist induced hypothermia.

[9] = tested on: mice; test: Oral EtOH self administration, 2-bottle choice procedure; conditions: daily treatment 10 mg/kg
Source text: These assays are important models for the study of alcoholism because they model several aspects of this condition including voluntary EtOH drinking (SA), conditioned EtOH reward (CPP), abstinence and relapse, which represent extinction and reinstatement of CPP, respectively. Effects of TV-5-249 on voluntary 10% EtOH drinking were studied using a 2-bottle choice procedure described by Keane and coworkers as wells as by Cunningham and coworkers. […] After 5 such observations, which represents a two week washout period, daily treatments with 10 mg/kg TV-5-249 were initiated. […] The last treatment was an everyday injection of vehicle, which is 8% Tween/92% sterile water solution and it represents the solution in which both drugs were dissolved in prior to injections.

[10] = tested on: mice; test: Alcohol conditioned place preference (CPP); type: in vivo, mouse; conditions: 10 mg/kg given 1 hour before EtOH pairings
Experimental: Alcohol conditioned place preference assay was done with compounds TV-6-41 and rimonabant. This assay tests the effects of these compounds on conditioned rewarding effects of EtOH. Training of mice involved 4 daily injections of […] EtOH paired with location to one of two chambers (four pairings) after which an increase in time spent in the EtOH-paired chamber was observed, and this points to the development of conditioned place preference (FIG. 24, ‘Pre” bar vs. “Post” bar). […] With the CPP training underway, mice were exposed to succeeding conditioning trials either with 10 mg/kg TV-6-41 or […] 1 hour before EtOH pairings. […] During these studies it was observed that 4 pairings of […] EtOH elicited a CPP of about 400 sec (FIG. 25, “No inj” bar).

SMILES: CCCCCCC(C)(C)c1ccc(C2CC(O)CC[C@H]2CCCO)c(O)c1 (some centres unmarked) [CP-55,940]
- [35S]GTPγS Binding, 100 nM ([1]; 100 nM): 0.20 ± 0.04 pmol/mg
- [35S]GTPγS Binding, +O-2050 (1 μM) ([1]; 1 μM cannabinoid (100 nM for CP-55,940) co-incubated with CB1R antagonist O-2050 1 μM): 0.06 ± 0.03 pmol/mg
- [35S]GTPγS Binding Emax ([1]; concentration-effect, mouse brain homogenates): 0.26 ± 0.01^a pmole/mg
- EC50 ([1]; concentration-effect, mouse brain homogenates, read-out: [35S]GTPγS Binding EC50): 7.5 ± 1.8 nM
- AC-inhibition at CB1Rs ([2]; 10 μM, Neuro2A cells): 45%
- Ki [3]: 0.26 ± 0.1 nM

SMILES: CCCCn1cc(Cc2cccc3ccccc23)c2cccc(OC)c21 [TV-5-249, 1-butyl-7-methoxy-3-(naphthalen-1-ylmethyl)-1H-indole]
- Ki [4]: 15.4 ± 2.2 nM
- Ki [5]: 10.9 nM
- inhibition at 10 µM [6]: 33.2%
- inhibition of AC-activity at CB2Rs, concentration-effect [6]: 40-50%
- antagonism of AC-inhibition produced by the CB1R full agonist JWH-073 [2]: antagonize AC inhibition
- inhibition at 10 µM ([2]; 10 μM, Neuro2A cells): 18%
- inhibition of AC-activity via CB1Rs, concentration-effect ([2]; Neuro2A cells): very little inhibition of AC-activity
- AC-activity in CHO-WT cells not transfected with CB2Rs [7]: neither TV-5-249 nor TV-6-41 significantly modify AC-activity
- effect on JWH-073-induced hypothermia [8]: significantly decreased the hypothermic effects of JWH-073
- EtOH preference (10% EtOH, 2-bottle choice) [9]: reduced EtOH preference
- body weight [9]: did not decrease body weight
- total fluid consumption [9]: without affecting total fluid consumption

SMILES: CCCCn1cc(-c2ccc3ccccc3c2)c2cccc(OC)c21 [TV-6-41, 1-butyl-7-methoxy-3-(naphthalen-2-yl)-1H-indole]
- Ki [4]: 37.3 ± 11.8 nM
- Ki [5]: 26.5 nM
- inhibition at 10 µM [6]: 20.8%
- inhibition of AC-activity at CB2Rs, concentration-effect [6]: 40-50%
- antagonism of AC-inhibition produced by the CB1R full agonist JWH-073 [2]: antagonize AC inhibition
- inhibition at 10 µM ([2]; 10 μM, Neuro2A cells): 16%
- inhibition of AC-activity via CB1Rs, concentration-effect ([2]; Neuro2A cells): very little inhibition of AC-activity
- AC-activity in CHO-WT cells not transfected with CB2Rs [7]: neither TV-5-249 nor TV-6-41 significantly modify AC-activity
- effect on JWH-073-induced hypothermia [8]: significantly decreased the hypothermic effects of JWH-073
- EtOH conditioned place preference [10]: conditioned rewarding effects of EtOH were blocked

SMILES: Cc1c(C(=O)NN2CCCCC2)nn(-c2ccc(Cl)cc2Cl)c1-c1ccc(Cl)cc1 [rimonabant, 5-(4-Chlorophenyl)-1-(2,4-dichloro-phenyl)-4-methyl-N-(piperidin-1-yl)-1H-pyrazole-3-carboxamide, reference compound]
- EtOH preference (10% EtOH, 2-bottle choice) [9]: decreases EtOH preference
- body weight [9]: does indeed have an effect on body weight
- total fluid consumption [9]: without having any effect on total fluid intake
- EtOH conditioned place preference [10]: did not elicit a significant preference for the EtOH-paired chamber
